# Reference: patent publication US20130296346A1, “DIPHENYL-AMINE DERIVATIVES: USES, PROCESS OF SYNTHESIS AND PHARMACEUTICAL COMPOSITIONS” (Faes Farma, S.A., priority 2010, published 2013)
# Entries after “also recorded” stand apart in the source; their conditions may differ. Marks after values point to notes of the source that are not given here.
# Key:
# [1] = system: B16 melanoma mouse cells; test: Melanoma orthotopic animal model; type: in vivo; conditions: 30 mg/kg intraperitoneal
# Experimental: Compound 3 dose was 30 mg/kg intraperitoneal in all of these experiments.
# FIG. 5A represents a PET picture of melanoma tumor luciferase activity in vivo. The intensity of the signal is higher on tumours with more proliferative cells. […] FIG. 5C is a graph showing melanoma tumor weight after control or Compound 3 treatment. 4 different and independent experiments with n=4 animals per group were carried out.
# [2] = system: EHEB cells; test: Chronic lymphocytic leukaemia xenograft animal model; type: in vivo, CB17-SCID mice
# Experimental: The chronic lymphocytic leukaemia (CLL) EHEB cell line was cultured in RPMI-1640 medium containing 10% (v/v) heat-inactivated fetal bovine serum, 2 mM L-glutamine, 100 U/ml penicillin, and 100 μg/ml streptomycin at 37° C. in humidified 95% air and 5% CO2. Cells were periodically tested for Mycoplasma infection and found to be negative. CB17-severe combined immunodeficiency (SCID) mice (Charles River laboratories, Lyon, France), kept and handled according to institutional guidelines, complying with Spanish legislation under a 12/12 h light/dark cycle at a temperature of 22° C., received a standard diet and acidified water ad libitum. CB17-SCID mice were inoculated subcutaneously into their lower dorsum with 1.5×10^7 EHEB cells in 100 μl PBS and 100 μl Matrigel basement membrane matrix (Becton Dickinson). When tumors were palpable, mice were randomly assigned into cohorts of 10 mice each, receiving i.v. administration (3 times/week) of the compound at the tail. The volume used for each i. v. administration was […] rendering a final drug concentration of 2.5 mg/kg (body weight). Mice i. v. administered with an equal volume of vehicle were run in parallel. The shortest and longest diameter of the tumor were measured with calipers, and tumor volume (10^−3 cm^3) was calculated using the following standard formula: (the shortest diameter)^2×(the longest diameter)×0.5. Animals were sacrificed, according to institutional guidelines, when the diameter of their tumors reached 3 cm or when significant toxicity was observed. Animal body weight and any sign of morbidity were monitored. Drug treatment lasted for 41 days. Then, tumor xenografts were isolated, measured and weighed, and a necropsy analysis involving tumors and distinct organs was carried out. All values were expressed as means±SD. Statistical differences between groups were assessed using the Mann-Whitney test or the Student's t-test. A p value of less than 0.05 was considered statistically significant. Results are depicted in FIG. 1.
# [3] = system: HCT-116; test: Apoptosis, sub-G1 peak and caspase activation; type: cell-based, human; conditions: HCT-116, 10 μM
# Experimental: (§1) Induction of apoptosis in human colon cancer HCT-116 cell line by Compound 3 (FIG. 8A). The induction of apoptosis was quantitated as the percentage of cells in the sub-G1 region (hypodiplody) of cell cycle analysis. Briefly, cells (5×10^5) were centrifuged and fixed overnight in 70% ethanol at 4° C. Cells were washed 3 times with PBS, incubated for 1 h with 1 mg/ml RNaseA and 20 μg/ml propidium iodide at room temperature, and then analyzed for cell cycle with a Becton Dickinson FACSCalibur flow cytometer (San Jose, Calif.). HCT-116 cells were incubated for the indicated times with 10 μM Compound 3, and apoptosis was then quantitated as percentage of cells in the sub-G1 region in cell cycle analysis by flow cytometry. The position of the sub-G1 peak (hypodiploidy), integrated by apoptotic cells, as well as the G0/G1 and G2/M peaks are indicated by arrows. Untreated control cells were run in parallel. The percentage of cells with a DNA content less than G1 (sub-G1) is indicated in each histogram. The experiment shown is representative of three performed Expression of different apoptosis-related proteins during Compound 3 treatment (FIG. 8B), HCT-116 and SW620 cells were treated with 10 μM Compound 3 for the indicated times and analyzed by immunoblotting with specific antibodies for the indicated proteins. […]
# [4] = system: SW620; test: Apoptosis, sub-G1 peak and caspase activation; type: cell-based, human; conditions: SW620, 10 μM
# Experimental: as §1
# [5] = system: MOSEC IDB cells; test: Ovarian tumor orthotopic animal model; type: in vivo, mice; conditions: 30 mg/Kg i.p. 5 days per week during 2 weeks
# Experimental: Experiments were performed using MOSEC IDB cells (mouse ovarian surface epithelial cells) with cloned luciferase reporter and cells implanted on mice ovarian region (Yu-Hung Huang et al, Claudin-3 gene silencing with siRNA suppresses ovarian tumor growth and metastasis. 3426-3430 PNAS 2009. vol. 106, no. 9).
# FIG. 6A represents a Pet picture of luciferase activity in vivo tumor (Compound 3 treated mice: 30 mg/Kg i.p. 5 days per week during 2 weeks).
# [6] = system: human patient chronic lymphocytic leukaemia cells; test: Viability of chronic lymphocytic leukaemia cells from patients; type: cell-based; conditions: cells with different ZAP70 expression
# Experimental: A panel of 6 human patient chronic lymphocytic leukaemia cells was chosen showing different patterns of ZAP70 expression (see cytogenetic changes notated in the table 5). Cells were incubated in the presence of compound 3. Results of this study, showing the viability are depicted in FIG. 3.
# [7] = 2.5 mg/kg i.v. 3 times/week, 41 days
# [8] = ex vivo after 41 days, 2.5 mg/kg i.v. 3 times/week
# [9] = vs control, 2.5 mg/kg i.v. 3 times/week, 41 days
structure (smiles),measurement,setting,value
"Fc1ccc(CNCCCC=C(c2ccccc2)c2ccccc2)cc1 [Compound 3, (5,5-diphenyl-pent-4-enyl)-(4-fluoro-benzyl)-amine hydrocloride]","in vivo antitumor activity, melanoma",[1],potent in vivo antitumor activity
same,CLL tumor growth compared with the control group,[2]; [7],inhibited CLL tumor growth; also recorded: stadistically significant
same,necropsy analysis of distinct organs,[2]; [7],No significant events or changes in the distinct organs
same,vascularization of isolated tumors,[2]; compared to drug-free tumor-bearing control mice,very little vascularization
same,Tumor Volume,[2]; [8],0.487 cm^3
same,Tumor Weight,[2]; [8],0.932 g
same,Inhibition (%) of Tumor Volume,[2]; [9],74.88** %
same,Inhibition (%) of Tumor Weight,[2]; [9],50.69** %
same,"apoptosis (sub-G1 peak, caspase activation)",[3],induces apoptosis
same,"apoptosis (sub-G1 peak, caspase activation)",[4],induces apoptosis
same,"in vivo antitumor activity, ovarian tumor area",[5],potent in vivo antitumor activity reducing the tumor area
same,decrease of viability of patient CLL cells,[6],more significant in cell with a low expression of ZAP70
